Literature values as cited in US8211015B2 (priority 2006, dated 2012).

Conditions: in vivo

| Compound | analgesic effect on labor pain |
| --- | --- |
| CCOC(=O)C1(c2ccccc2)CCN(C)CC1 [meperidine] | more sedation than actual analgesia |
| CN1CC[C@]23c4c5ccc(O)c4O[C@H]2[C@@H](O)C=C[C@H]3[C@H]1C5 [morphine] | more sedation than actual analgesia |
